Several values for one entry are separate records, joined by “and”; a condition that tells them apart may be missing. Identical values can stand only once.

We go through one molecule from US11167162B2 (priority 2017, dated 2021).

The assay deals with Fecal coliforms. In kind it is cell-based.

Regarding `CC(=O)OO` [A, peroxyacetic acid], the Category is >1000 and <1000.
